# ChEMBL document CHEMBL1126510, “Synthesis of D-3-deoxy-3-phosphonomethyl-myo-inositol and its dimethyl ester - compounds of use in studying the ptdins-3-kinase signalling pathway” (Bioorg Med Chem Lett, 1993)
# pIC50: −log10 of the molar value. Calls of active or inactive are those of the source. No cut-off for these calls is given here.
# Columns and labels:
# Conditions in all cases: Mus musculus
# NIH3T3 [1] = assay: Inhibitory activity against growth of vis-sis transformed NIH 3T3 cells at 1 mM; IA means inactive; assay type: functional, cell-based
# NIH3T3 [2] = assay: Inhibitory activity against growth of wild type NIH 3T3 cells at 1 mM; assay type: functional
# NIH3T3 [3] = assay: Inhibitory concentration against growth of vis-sis transformed NIH 3T3 cells with inositol; assay type: functional, cell-based
# NIH3T3 [4] = assay: Inhibitory concentration against growth of wild type NIH 3T3 cells without inositol; assay type: functional, cell-based
# NIH3T3 [5] = assay: Inhibitory concentration against growth of wild type NIH 3T3 cells with inositol; assay type: functional, cell-based
# NIH3T3 [6] = assay: Inhibitory concentration against growth of vis-sis transformed NIH 3T3 cells without inositol; assay type: functional, cell-based
# NIH3T3 [7] = assay: Inhibitory activity against growth of wild type NIH 3T3 cells at 1 mM; IA means inactive; assay type: functional, cell-based
# NIH3T3 [8] = assay: Inhibitory concentration against growth of vis-sis transformed NIH 3T3 cells at 1 mM; IA means inactive; assay type: functional, cell-based
Structure (SMILES),inhibition (NIH3T3 [1]),inhibition at 1000 µM (NIH3T3 [2]) [%],pIC50 (NIH3T3 [3]),pIC50 (NIH3T3 [4]),pIC50 (NIH3T3 [5]),pIC50 (NIH3T3 [6]),inhibition (NIH3T3 [7]),inhibition (NIH3T3 [8])
COP(=O)(CC1C(O)[C@H](O)C(O)[C@@H](O)C1O)OC (some centres undefined),inactive,30,,,,,,
OCC1C(O)C(O)C(O)C(O)C1O (centres undefined),,,2.26,1.62,2.37,2.00,,
O=P(O)(O)CC1C(O)[C@H](O)C(O)[C@@H](O)C1O (some centres undefined),inactive,30,,,,,,
C=C1C(O)[C@H](O)C(O)[C@@H](O)C1O (some centres undefined),,,,,,,inactive,inactive
OC1C(O)C(O)C(CI)C(O)C1O (centres undefined),,,1.25,1.62,1.37,1.70,,
